Molecular target: voltage-gated Na channels
Format: cell-based, squid (Loligo opalescens)

MKLTCVLVVLLLLLPYGDLITNNYIRGAARKVTPWRRNLKTRDVCDSLVGGHCIHNGCWCDQEAPHGNCCDTDGCTAAWWCPGTKWD [calTx1.1A]
Ki: ~15 nM | Na-channel blocking activity (block): 55% | reversibility of INa reduction/block: reversibly blocked INa | steady-state voltage-dependence of fast inactivation of residual INa: not significantly affected | time course of residual prepulse-sensitive INa: not significantly different than normal | voltage dependence of block: potency decreasing e-fold in: 300-400 mV

From patent publication US7341998B2 (The Board of Trustees of the Leland Stanford Junior …, priority 2005, dated 2008)
